Data reported in patent US20150037397A1, “PHARMACEUTICAL COMPOSITIONS OF PYRIDINIUM AND QUINOLINIUM DERIVATIVES” (TRASLATIONAL CANCER DRUGS PHARMA, S.L., priority 2010, published 2015).

Experiments:
[1] = Solubility in simulated biological media and dilution media; type: physicochemical; conditions: for Solubility of TCD717: 24 h stirring, room temperature
[2] = Solubility testing in lipophilic and amphiphilic vehicles; type: physicochemical
Experimental: The solubility of TCD717 was determined in selected vehicles. […] The undissolved fraction of TCD717 was separated by filtration through a 0.22 μm pore size PVDF filter, and the filtrate was diluted before analyzing the TCD717 content by HPLC.

[3] = pH solubility profiling in Titrisol buffers (HPLC after filtration); type: physicochemical; conditions: 24 h, room temperature
Experimental: The pH solubility profile of compound TCD717 (compound No. 6, Q=Br) was assessed at pH 2-8. […] The TCD717 concentration after filtration through a 0.22 μm pore size PVDF filter was determined using HPLC.

[4] = type: physicochemical
Experimental: The solubility of solid TCD717 at room temperature in prototype vehicles suitable for intravenous formulation and the behavior after five-fold dilution with 0.9% NaCl solutions was tested. Formulations were prepared by dissolving the components in water at the indicated concentration.

[5] = Solubility in saline solutions at different NaCl concentrations; type: physicochemical; conditions: NaCl 2, 5, 10, 20, 100 and 165 mM (FIG. 2)
Experimental: To obtain a greater insight on the sensitivity of the solubility for sodium and chloride ions, the solubility of TCD717 was tested in saline solutions at NaCl concentrations of 2, 5, 10, 20, 100 and 165 mM NaCl.

[6] = Chemical stability of TCD717 in solution under stress conditions; type: physicochemical
From the text: The chemical stability of TCD717 (compound No. 6, Q=Br) in solution (which comprises MeOH/water 3:1 v/v and additional stress elements, as indicated in the Table) under various stress conditions is provided in the following Table.

CN(c1ccc(Cl)cc1)c1cc[n+](Cc2ccc(-c3ccc(C[n+]4ccc(N(C)c5ccc(Cl)cc5)c5ccccc54)cc3)cc2)c2ccccc12.[Br-].[Br-] [TCD717]
Solubility of TCD717 ([1]; Glucose 5% (w/v)): 260 µg/mL | Solubility of TCD717 ([1]; Human Serum Albumin 2% (w/v)): 275 µg/mL | Solubility of TCD717 ([1]; Saline 0.9% (w/v)): 9 µg/mL | Solubility of TCD717 ([1]; Water): 200 µg/mL | Solubility in aqueous NaCl 0.9% ([1]; aqueous NaCl 0.9%): 9 µg/mL | Solubility in water ([1]; water at 25° C.): 200 µg/mL | Solubility ([2]; Cremophor EL35, at least 24 h at 45° C.): 0.78 mg/g | Solubility ([2]; Miglyol 812, at least 24 h at 45° C.): 0.002 mg/g | Solubility ([2]; Solutol HS15, at least 24 h at 45° C.): 2.3 mg/g | Affinity for detergents ([2]; Solutol HS 15 and Tween 80): low affinity | Solubility ([2]; Soya oil, at least 24 h at 45° C.): 0.015 mg/g | Solubility ([2]; Tween 80, at least 24 h at 45° C.): 3.1 mg/g | Solubility ([2]; soy oil and Miglyol): very low | TCD717 concentration (solubility) ([3]; Boron acid/HCl/NaOH 110 mM (Tritrisol), buffer pH 8): 3 µg/mL | TCD717 concentration (solubility) ([3]; Citrate/HCl 30 mM (Tritrisol), buffer pH 2): 45 µg/mL | TCD717 concentration (solubility) ([3]; Citrate/HCl 40 mM (Tritrisol), buffer pH 3): 32 µg/mL | TCD717 concentration (solubility) ([3]; Citrate/HCl 56 mM (Tritrisol), buffer pH 4): 8 µg/mL | TCD717 concentration (solubility) ([3]; Citrate/NaOH 60 mM (Tritrisol), buffer pH 6): 62 µg/mL | TCD717 concentration (solubility) ([3]; Citrate/NaOH 96 mM (Tritrisol), buffer pH 5): 6 µg/mL | TCD717 concentration (solubility) ([3]; Phosphate (K + Na+) 67 mM (Tritrisol), buffer pH 7): 860 µg/mL | TCD717 concentration (solubility) ([3]; Water, suspended at 5 mg/ml): 200 µg/mL | Solubilization potential of the solubilizing agent for TCD717 [4]: highest solubilization potential | Precipitation after dilution ([4]; HP-β-CD composition, five-fold dilution with 0.9% NaCl solutions): no precipitation | Aqueous solubility as a function of NaCl concentration [5]: decreases at NaCl concentrations above 20 mM | Observation (chemical stability) ([6]; MeOH/water 3:1 v/v, 0.1M HCl/1 day): No degradation observed | Observation (chemical stability), degradation ([6]; MeOH/water 3:1 v/v, 0.1M NaOH/1 day): Some degradation (~6%) | Observation (chemical stability) ([6]; MeOH/water 3:1 v/v, 3% H2O2 + 0.1M HCl): Complete degradation | Observation (chemical stability) ([6]; MeOH/water 3:1 v/v, 3% H2O2 + 0.1M NaOH): Complete degradation | Observation (chemical stability) ([6]; MeOH/water 3:1 v/v, 3% H2O2/1 day): No degradation observed | Stability ([6]; combinations of acidic/oxidizing and basic/oxidizing conditions): very unstable | Stability ([6]; under basic conditions): only moderately stable
